Results reported in US8188059B2, “Compounds and methods for modulating expression of GCGR” (Isis Pharmaceuticals, Inc., priority 2006, dated 2012).
Strand notation (5' to 3'): a small letter for the sugar, then the base; units joined by * are phosphorothioate-linked, units joined directly phosphodiester-linked; [ ] holds rarer units or linkages, { } end groups; capitals alone tell only the bases. e = 2'-O-(2-methoxyethyl) (MOE); [5mC] = 5-methylcytosine; d = 2'-deoxy (DNA)

Legend:
DGAT2 mRNA = assay: Antisense inhibition of DGAT2 in A10 cells at 75 nM (Example 22, Table 81); type: cell-based, rat; details: approximately 24 hours
Procedure: Short antisense compounds targeted to a DGAT2 nucleic acid were tested for their effects on DGAT2 mRNA in vitro. Cultured A10 cells in a 96-well plate were treated with 75 nM of short antisense compound. After a treatment period of approximately 24 hours, RNA was isolated from the cells and DGAT2 mRNA levels were measured by quantitative real-time PCR, as described herein. DGAT2 mRNA levels were adjusted according to total RNA content as measured by RIBOGREEN®. […]

rat DGAT2 mRNA [1] = assay: Dose-dependent inhibition of DGAT2 in A10 cells, 0.62-150 nM (Example 22, Table 83); type: cell-based
Procedure: Additional short antisense compounds targeted to DGAT2 mRNA were tested in vitro. A10 cells were prepared as described above and treated with 0.62, 1.85, 5.56, 16.67, 50.0, and 150.0 nM short antisense compounds to determine if DGAT2 inhibition occurs in a dose-dependent manner. DGAT2 mRNA was measured using quantitative real-time PCR, as described herein. […] Results are presented as percent inhibition of rat DGAT2, relative to untreated control cells.

rat DGAT2 mRNA [2] = assay: Dose-dependent inhibition of DGAT2 in A10 cells, 6.25-200 nM (Example 22, Table 82); type: cell-based
Procedure: Additional short antisense compounds targeted to DGAT2 mRNA were tested in vitro in a dose-response experiment. A10 cells were prepared as described above and treated with 6.25, 12.5, 25.0, 50.0, 100.0, and 200.0 nM short antisense compounds to determine if DGAT2 inhibition occurs in a dose-dependent manner. […] Results are presented as percent inhibition, relative to untreated control cells.

rat SGLT2 mRNA = assay: Rat SGLT2 mRNA levels in kidney, 1-10-1 and 1-10-2 MOE gapmers, Sprague-Dawley rats (Example 13, Table 63); type: in vivo
Description: 1-10-1 and 1-10-2 MOE gapmer antisense compounds, provided in Table 62, were designed to target different regions of the mouse or rat SGLT2 RNA. All short antisense compounds in Table 62 are chimeric oligonucleotides (“gapmers”) either 12 or 13 nucleotides in length, composed of a central “gap” segment consisting of ten 2′-deoxynucleotides, which are flanked on the 5′ side by a one-nucleoside “wing” and on the 3′ side by a two or one-nucleotide “wing”. […] All cytidine residues are 5-methylcytidines.
The short antisense compounds were analyzed for their effect on rat SGLT2 mRNA levels. Data are ranges taken from three experiments in which Male Sprague-Dawley rats (170-200 g) were dosed twice per week for three weeks with 450, 150 or 50 nmol/kg of either a 1-10-1 or 1-10-2 MOE gapmer given by intraperitoneal injection. Rats were sacrificed 48 hours following last administration and evaluated for SGLT2 mRNA levels in kidney. Target levels were determined by RT, real-time PCR as described by other examples herein. PCR results were normalized to an internal ISIS control.

[3] = 50 nmol/kg i.p. twice per week for three weeks
[4] = 150 nmol/kg i.p. twice per week for three weeks
[5] = 450 nmol/kg i.p. twice per week for three weeks

Row | Substance | DGAT2 mRNA, % Control (DGAT2 mRNA) [%] | percent inhibition of rat DGAT2 (rat DGAT2 mRNA [1]; 0.62 nM) | percent inhibition of rat DGAT2 (rat DGAT2 mRNA [1]; 1.85 nM) | percent inhibition of rat DGAT2 (rat DGAT2 mRNA [1]; 5.56 nM) | percent inhibition of rat DGAT2 (rat DGAT2 mRNA [1]; 16.67 nM) | percent inhibition of rat DGAT2 (rat DGAT2 mRNA [1]; 50 nM) | percent inhibition of rat DGAT2 (rat DGAT2 mRNA [1]; 150 nM) | percent inhibition of DGAT2 (rat DGAT2 mRNA [2]; 6.25 nM) | percent inhibition of DGAT2 (rat DGAT2 mRNA [2]; 12.5 nM) | percent inhibition of DGAT2 (rat DGAT2 mRNA [2]; 50.0 nM) | percent inhibition of DGAT2 (rat DGAT2 mRNA [2]; 100.0 nM) | percent inhibition of DGAT2 (rat DGAT2 mRNA [2]; 200.0 nM) | percent inhibition of DGAT2 (rat DGAT2 mRNA [2]; […]) | % change in SGLT2 expression relative to saline (rat SGLT2 mRNA; [3]) [%] | % change in SGLT2 expression relative to saline (rat SGLT2 mRNA; [4]) [%] | % change in SGLT2 expression relative to saline (rat SGLT2 mRNA; [5]) [%]
1 | 372524 (antisense eG*e[5mC]*e[5mC]*dA*dG*dG*d[5mC]*dA*dT*dG*dG*dA*dG*e[5mC]*eT*e[5mC]) [compound 372524] | 21 | 7 | 0 | 5 | 30 | 68 | 91 |  |  |  |  |  |  |  |  | 
2 | 372530 (antisense eT*e[5mC]*eG*dG*d[5mC]*d[5mC]*d[5mC]*d[5mC]*dA*dG*dG*dA*dG*e[5mC]*e[5mC]*e[5mC]) [compound 372530] | 35 | 0 | 2 | 0 | 10 | 38 | 78 |  |  |  |  |  |  |  |  | 
3 | 372546 (antisense eT*eT*eG*dG*dT*d[5mC]*dT*dT*dG*dT*dG*dA*dT*eT*eG*eT) [compound 372546] | 34 | 0 | 2 | 11 | 4 | 48 | 78 |  |  |  |  |  |  |  |  | 
4 | 372563 (antisense eA*eG*d[5mC]*d[5mC]*dA*dG*dG*dT*dG*dA*d[5mC]*dA*eG*eA) [compound 372563] | 48 | 0 | 0 | 0 | 1 | 4 | 46 |  |  |  |  |  |  |  |  | 
5 | 372578 (antisense eT*eG*dT*dG*dT*d[5mC]*dT*dT*d[5mC]*dA*d[5mC]*d[5mC]*eA*eG) [compound 372578] | 59 | 0 | 0 | 0 | 2 | 7 | 42 |  |  |  |  |  |  |  |  | 
6 | 372580 (antisense eG*eG*dT*dT*dG*dT*dG*dT*dG*dT*d[5mC]*dT*eT*e[5mC]) [compound 372580] | 48 | 0 | 5 | 5 | 3 | 16 | 42 |  |  |  |  |  |  |  |  | 
7 | 372586 (antisense eG*eT*dT*d[5mC]*d[5mC]*dT*dG*dG*dT*dG*dG*dT*e[5mC]*eA) [compound 372586] | 40 | 0 | 0 | 0 | 0 | 7 | 55 | 19 | 0 | 22 | 45 | 77 | 7 |  |  | 
8 | 372594 (antisense eA*e[5mC]*dA*dG*dA*dA*dG*dG*d[5mC]*dA*d[5mC]*d[5mC]*e[5mC]*eA) [compound 372594] | 77 | 0 | 0 | 0 | 0 | 2 | 15 |  |  |  |  |  |  |  |  | 
9 | 372602 (antisense e[5mC]*e[5mC]*dA*dG*dG*d[5mC]*dA*dT*dG*dG*dA*dG*e[5mC]*eT) [compound 372602] | 39 | 0 | 0 | 10 | 0 | 19 | 51 | 0 | 0 | 18 | 47 | 76 | 0 |  |  | 
10 | 372618 (antisense eG*eT*dG*dG*dT*dA*d[5mC]*dA*dG*dG*dT*d[5mC]*eG*eA) [compound 372618] | 29 | 0 | 0 | 0 | 0 | 30 | 60 | 0 | 5 | 27 | 65 | 80 | 0 |  |  | 
11 | 372624 (antisense eT*eG*dG*dT*d[5mC]*dT*dT*dG*dT*dG*dA*dT*eT*eG) [compound 372624] | 56 | 0 | 0 | 0 | 1 | 16 | 38 |  |  |  |  |  |  |  |  | 
12 | ISIS 382675 (antisense eT*dA*dG*d[5mC]*d[5mC]*dA*d[5mC]*d[5mC]*dA*dA*d[5mC]*eT*eG) |  |  |  |  |  |  |  |  |  |  |  |  |  | −50 | −65 | −80
13 | ISIS 382677: SGLT2; GGCATGAGCTTCA 1-10-2 MOE (antisense eG*dG*d[5mC]*dA*dT*dG*dA*dG*d[5mC]*dT*dT*e[5mC]*eA) |  |  |  |  |  |  |  |  |  |  |  |  |  | −40 | −60 | −75
